In data set [1] the test system is Nav channels. The data set is described as follows: TEVC electrophysiology, Nav channel panel in Xenopus oocytes. The settings on record: discussion; tested at 1 μM. Format: cell-based. An excerpt:
(§1) For the expression of the voltage gated potassium channels (rKV1.1, rKV1.2, hKV1.3, rKV1.4, rKV1.5, rKV1.6, Shaker IR, rKV2.1, hKV3.1, rKV4.2, hERG, KV10.1) and the voltage gated sodium channels (rNaV1.1, rNaV1.4, hNaV1.5, mNaV1.6 and DmNav1) in Xenopus oocytes, the linearized plasmids were transcribed using the T7 or SP6 mMESSAGE-mMACHINE transcription kit (Ambion, Waltham, MA, USA). The harvesting of stage V–VI oocytes from anaesthetized female X. laevis frog has been previously described. Oocytes were injected with 30–50 nL of cRNA at a concentration of 1 ng/nL using a micro-injector (Drummond Scientfic, Broomall, PA, USA). The oocytes were incubated in a solution containing (in mM): NaCl, 96; KCl, 2; CaCl2, 1.8; MgCl2, 2 and HEPES, 5 (pH 7.4), supplemented with 50 mg/L gentamycin sulfate.
(§2) Two-electrode voltage-clamp recordings were performed at room temperature (18–22 °C) using a Geneclamp 500 amplifier (Molecular Devices, Silicon Valley, CA, USA) controlled by a pClamp data acquisition system (Axon Instruments, Union City, CA, USA). Whole cell currents from oocytes were recorded 1–10 days after injection. Bath solution composition was ND96 (in mM): NaCl, 96; KCl, 2; CaCl2, 1.8; MgCl2, 2 and HEPES, 5 (pH 7.4) (in mM): NaCl, 2; KCl, 96; CaCl2, 1.8; MgCl2, 2 and HEPES, 5 (pH 7.4). […]

The test system of data set [2] is Nav1.1 (rNaV1.1). The data set is described as follows: TEVC electrophysiology, Nav1.1 in Xenopus oocytes. In kind it is cell-based, rat. The conditions noted are these: 1 μM, two-electrode voltage-clamp, 100 ms depolarization to 0 mV from −90 mV, number of cells ≥ 3.
From the text: as §1, §2

Data set [3] has as its system Kv10.1. The data set is described as follows: TEVC electrophysiology, Kv10.1 in Xenopus oocytes. In kind it is cell-based. The settings on record: 3 μM, native toxin, two-electrode voltage-clamp, ND96 pH 7.4, 18–22 °C, 1 s depolarization to 0 mV from −90 mV, n ≥ 3.
From the text: as §1, §2

Data set [4] deals with Nav1.4 (rNaV1.4). The data set is described as follows: TEVC electrophysiology, Nav1.4 in Xenopus oocytes. Format: cell-based, rat. The settings on record: 1 μM, two-electrode voltage-clamp, 100 ms depolarization to 0 mV from −90 mV, number of cells ≥ 3.
From the text: as §1, §2

Data set [5] has as its system Nav1.6 (mNaV1.6). The data set is described as follows: TEVC electrophysiology, Nav1.6 in Xenopus oocytes. The conditions noted are these: 1 μM, two-electrode voltage-clamp, 100 ms depolarization to 0 mV from −90 mV, number of cells ≥ 3. In kind it is cell-based, mouse.
From the text: as §1, §2

For data set [6], the system named is DmNav1. The data set is described as follows: TEVC electrophysiology, DmNav1 in Xenopus oocytes. Format: cell-based, insect. The settings on record: 1 μM, two-electrode voltage-clamp, 100 ms depolarization to 0 mV from −90 mV, number of cells ≥ 3.
From the text: as §1, §2

Data set [7] concerns the target T1, Kv1.3 (hKV1.3) (Homo sapiens, UniProt P22001).
T1 construct: expressed in transfected cells; host or cells: Xenopus laevis oocytes injected with cRNA
The data set is described as follows: TEVC electrophysiology, Kv1.3 in Xenopus oocytes. Format: cell-based.
From the text: as §1
Two-electrode voltage-clamp recordings were performed at room temperature (18–22 °C) using a Geneclamp 500 amplifier (Molecular Devices, Silicon Valley, CA, USA) controlled by a pClamp data acquisition system (Axon Instruments, Union City, CA, USA). Whole cell currents from oocytes were recorded 1–10 days after injection. Bath solution composition was ND96 (in mM): NaCl, 96; KCl, 2; CaCl2, 1.8; MgCl2, 2 and HEPES, 5 (pH 7.4) (in mM): NaCl, 2; KCl, 96; CaCl2, 1.8; MgCl2, 2 and HEPES, 5 (pH 7.4). Voltage and current electrodes were filled with KCl 3 M. Resistances of both electrodes were kept between […]. The elicited currents were sampled at 1 kHz and filtered at 0.5 kHz (for potassium currents) or sampled at 20 kHz and filtered at 2 kHz (for sodium currents) using a four-pole low-pass Bessel filter. Leak subtraction was performed using a -P/4 protocol.
The KV1.1–KV1.6, KV2.1, KV3.1 and KV4.2 and Shaker IR currents were evoked by 250 ms depolarizations to 0 mV followed by a 250 ms pulse to −50 mV, from a holding potential of −90 mV. Current traces of hERG channels were elicited by applying a pulse from −90 mV to +40 mV for 2.5 s followed by a step to −120 mV for 2.5 s. The Kv 10.1 currents were evoked by 1 s depolarization to 0 mV, from a holding potential of −90 mV. Sodium current traces were evoked, from a holding potential of −90 mV, by 100 ms depolarization to 0 mV. In order to investigate the current-voltage relationship, current traces were evoked by 10 mV depolarization steps from a holding potential of −90 mV.
To assess the concentration-response relationship of Ts11 on Kv1.3, data were fitted with the Hill equation: y = 100/[1 + (IC50/[toxin])^h], where y is the amplitude of the toxin-induced effect, IC50 is the toxin concentration at half maximal efficacy, [toxin] is the toxin concentration and h is the Hill coefficient (Hill coefficient: 0.8). Current-voltage relationship was determined by 100 ms step depolarization between −90 and +70 mV, using 10 mV increments. All data represent at least 3 independent experiments (n = 3) and are presented as mean ± standard error.

Data set [8] concerns Kv channels. The data set is described as follows: TEVC electrophysiology, Kv channel panel in Xenopus oocytes. In kind it is cell-based. The settings on record: discussion, Kv channels overall.
From the text: as §1, §2

The subject of data set [9] is hERG. The data set is described as follows: TEVC electrophysiology, hERG in Xenopus oocytes. Format: cell-based.
From the text: as §1, §2

The test system of data set [10] is Nav1.5 (hNaV1.5). The data set is described as follows: TEVC electrophysiology, Nav1.5 in Xenopus oocytes. In kind it is cell-based, human. The conditions noted are these: 1 μM, two-electrode voltage-clamp, 100 ms depolarization to 0 mV from −90 mV, number of cells ≥ 3.
From the text: as §1, §2

The subject of data set [11] is Kv4.2 (rKV4.2). The data set is described as follows: TEVC electrophysiology, Kv4.2 in Xenopus oocytes. In kind it is cell-based, rat.
From the text: as §1, §2

In data set [12] the test system is Kv1.2 (rKV1.2). The data set is described as follows: TEVC electrophysiology, Kv1.2 in Xenopus oocytes. In kind it is cell-based, rat.
From the text: as §1, §2

For data set [13], the system named is Shaker IR. The data set is described as follows: TEVC electrophysiology, Shaker IR in Xenopus oocytes. Format: cell-based. The settings on record: 3 μM, native toxin, two-electrode voltage-clamp, ND96 pH 7.4, 18–22 °C, 250 ms depolarizations to 0 mV from −90 mV, n ≥ 3.
From the text: as §1, §2

The mark [14] stands for this setting: 3 μM, native toxin, two-electrode voltage-clamp, Xenopus oocytes, ND96 pH 7.4, 18–22 °C, 250 ms depolarizations to 0 mV from −90 mV, n ≥ 3.
[15] abbreviates: 5 μM, compared with 3 μM, data not shown.

Bridge positions count the residues as written; N and C are the ends. Peptide text beside a SMILES is read from it.

T1 sequence (P22001 whole entry): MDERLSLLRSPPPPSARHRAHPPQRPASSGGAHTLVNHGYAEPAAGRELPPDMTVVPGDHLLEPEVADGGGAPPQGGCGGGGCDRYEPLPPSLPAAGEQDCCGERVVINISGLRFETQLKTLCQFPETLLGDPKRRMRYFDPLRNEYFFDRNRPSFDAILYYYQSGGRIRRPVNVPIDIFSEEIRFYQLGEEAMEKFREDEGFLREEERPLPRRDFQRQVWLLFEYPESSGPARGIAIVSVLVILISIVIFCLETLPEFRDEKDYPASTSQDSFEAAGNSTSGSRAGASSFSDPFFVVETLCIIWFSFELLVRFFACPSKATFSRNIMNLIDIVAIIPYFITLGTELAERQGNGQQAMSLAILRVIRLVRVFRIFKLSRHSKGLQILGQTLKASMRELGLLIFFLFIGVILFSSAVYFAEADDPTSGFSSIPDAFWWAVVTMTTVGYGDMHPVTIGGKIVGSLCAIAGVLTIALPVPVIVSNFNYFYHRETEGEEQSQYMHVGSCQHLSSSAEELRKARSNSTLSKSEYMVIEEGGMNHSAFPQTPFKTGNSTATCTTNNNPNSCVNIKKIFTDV

Consider `CC(C)C[C@@H]1NC(=O)CNC(=O)[C@@H](NC(=O)[C@H](CCCCN)NC(=O)[C@@H]2CCCN2C(=O)[C@@H](N)CCCCN)CSSC[C@@H]2NC(=O)[C@@H]3CSSC[C@@H]4NC(=O)[C@H](CCCCN)NC(=O)CNC(=O)[C@H](CO)NC(=O)[C@H](CO)NC(=O)[C@H](CSSC[C@H](NC(=O)[C@H](C)NC(=O)CNC(=O)[C@H](CC(N)=O)NC(=O)[C@H](C(C)C)NC4=O)C(=O)N[C@@H](CC(=O)O)C(=O)N[C@H](C(=O)N[C@@H](CO)C(=O)O)CSSC[C@H](NC1=O)C(=O)N[C@@H](CCCNC(=N)N)C(=O)N[C@@H](Cc1ccc(O)cc1)C(=O)N[C@@H](CCCNC(=N)N)C(=O)N3)NC(=O)CNC(=O)CNC(=O)[C@H](CO)NC2=O` [Ts11] (H-KPKCGLCRYRCCSGGCSSGKCVNGACDCS-OH; disulfide 4-12, 7-28, 11-21, 16-26; N-terminus and C-terminus assumed), for which the “activity on Nav channels overall (in words)” value in data set [1] was “does not target Nav channels”. The “activity on Nav1.1” value in data set [2] is “inactive”. Besides, in data set [3], the “blocking effect on Kv10.1” value is on record as 15%. For the same compound, the “activity on Nav1.4” value in data set [4] is “inactive”. For the same compound, in data set [5], the “activity on Nav1.6” value is “inactive”. Moreover, in data set [6], the “activity on insect channel DmNav1” value is “inactive”. Besides, in data set [7] (setting [14]), the “blocking effect on Kv1.3” value turned out to be 27%. Further, the “alteration of channel activation properties (Kv1.3)” value in data set [7] (5 μM, V1/2 with toxin vs control) is on record as “No significant alteration of properties of channel activation”. The “Hill coefficient, Kv1.3” value in data set [7] (concentration-response fit, Hill equation, n ≥ 3) came out at 0.8. The IC50 in data set [7] (concentration-response, Hill equation fit, two-electrode voltage-clamp, Xenopus oocytes, pH 7.4, 18–22 °C, mean ± standard error, n ≥ 3, read-out: IC50, inhibition of Kv1.3 currents) was determined as 17.1 ± 3.3 µM. Also, the “V1/2 of Kv1.3 activation” value in data set [7] (toxin condition, 5 μM (Figure 3B), normalized peak Itail, control 17.3 ± 0.6 mV, n ≥ 3, mean ± standard error) came to 17.6 ± 0.7 mV. Also, in data set [8], the “effect on kinetics of Kv channel gating” value is “without altering the kinetics of channel gating” and the “potency as Kv channel blocker (in words)” value is given as “not a potent blocker of Kv channels”. In addition, in data set [9] (3 μM, native toxin, two-electrode voltage-clamp, Xenopus oocytes, pH 7.4, 18–22 °C, pulse −90 mV to +40 mV for 2.5 s, step to −120 mV for 2.5 s, n ≥ 3), the “blocking effect on hERG” value was 12%. For the same compound, the “increase in blockage at higher concentration, hERG” value in data set [9] (10 μM, compared with 3 μM, data not shown) is given as “no significant increase in blockage”. Further, the “activity on Nav1.5” value in data set [10] was “inactive”. In addition, in data set [11] (setting [14]), the “blocking effect on Kv4.2” value came to 25%. Besides, the “increase in blockage at higher concentration, Kv4.2” value in data set [11] (setting [15]) is “no significant increase in blockage”. Further, the “blocking effect on Kv1.2” value in data set [12] (setting [14]) stood at 25%. In addition, the “increase in blockage at higher concentration, Kv1.2” value in [12] (setting [15]) is “no significant increase in blockage”. Besides, in data set [13], the “blocking effect on Shaker IR” value came out at 10%.

For the origin of these results see publication PMC5086648, “Structural and Functional Elucidation of Peptide Ts11 Shows Evidence of a Novel Subfamily of Scorpion Venom Toxins” (Toxins, 2016).
